Measurements taken from US20050148631A1, “Amino heterocyclyl inhibitors of 11-beta-hydroxy steroid dehydrogenase type 1” (AGOURON PHARMACEUTICALS, INC., priority 2003, published 2005).
Like-named read-outs stand apart in the source and are kept apart here.

Target: 11β-hsd-1 enzyme (Homo sapiens, UniProt P28845)
Experiment: 11β-hsd-1 enzyme assay, percentage of inhibition (3H-cortisone to cortisol, radio-HPLC)
Format: biochemical
Conditions: read-out: % inh @ 0.1 uM

11β-hsd-1 enzyme, sequence (P28845 whole entry, species assumed): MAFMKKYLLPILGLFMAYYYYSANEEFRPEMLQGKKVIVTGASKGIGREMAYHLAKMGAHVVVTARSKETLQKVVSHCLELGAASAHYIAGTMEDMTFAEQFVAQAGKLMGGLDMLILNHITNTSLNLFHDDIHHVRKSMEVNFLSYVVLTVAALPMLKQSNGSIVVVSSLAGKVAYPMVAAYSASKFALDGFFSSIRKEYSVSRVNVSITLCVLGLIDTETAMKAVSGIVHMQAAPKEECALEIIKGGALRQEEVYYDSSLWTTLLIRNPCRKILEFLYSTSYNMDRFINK

Compound | inhibition at 0.1 µM (0.1 uM) | inhibition at 0.1 µM (compound at 0.1 uM)
Cc1cc(C)c2ccc(NS(=O)(=O)c3ccc(-c4ccc(C#N)cc4)cc3)nc2n1 [Example 106] | 5.4% | –
Cc1cc(C)nc(NS(=O)(=O)c2cccc(Cl)c2C)c1 [Example 44] | 16% | –
Cc1cccc(NS(=O)(=O)c2ccc(C#N)cc2Cl)n1 [Example 53] | 10.1% | –
Cc1cccc(NS(=O)(=O)c2sc(C)nc2C)n1 [Example 98] | 8.9% | –
Cc1cc(CC(=O)N2CCCCC2)nc(NS(=O)(=O)c2cccc(Cl)c2C)c1 [Example 14] | 25.9% | –
Cc1cccc(NS(=O)(=O)c2ccc(-c3ccc(Cl)c(Cl)c3)cc2)n1 [Example 140] | 91% | –
COc1ccc(-c2ccc(S(=O)(=O)Nc3cccc(C)n3)cc2C)cc1C [Example 243] | – | 70%
Cc1ccc(-c2ccc(S(=O)(=O)Nc3cccc(C)n3)cc2)cc1 [Example 124] | 84% | –
Cc1cccc(NS(=O)(=O)c2ccc(C#N)cc2)n1 [Example 90] | 24.8% | –
Cc1c(Cl)cccc1S(=O)(=O)Nc1cccc(CC(=O)N2CCOCC2)n1 [Example 8, 3-Chloro-2-methyl-N-[6-(2-morpholin-4-yl-2-oxo-ethyl)-pyridin-2-yl]-benzenesulfonamide] | 5.52% | –
COC(=O)c1cccc(NS(=O)(=O)c2cccc(Cl)c2C)n1 [Example 4] | 23.9% | –
Cc1c(Cl)cccc1S(=O)(=O)Nc1cccc(CC(=O)NC23CC4CC(CC(C4)C2)C3)n1 [Example 27, N-Adamantan-1-yl-2-[6-(3-chloro-2-methyl-benzenesulfonylamino)-pyridin-2-yl]-acetamide] | 1.9% | –
COc1ccc(-c2ccc(S(=O)(=O)Nc3cccc(C)n3)cc2)c(OC)c1 [Example 135] | 49.1% | –
Cc1nc(NS(=O)(=O)c2ccc(-c3ccc(C#N)cc3)cc2)ccc1C#N [Example 101] | 32% | –
CN(C)Cc1cccc(NS(=O)(=O)c2ccc(-c3ccc(C#N)cc3)cc2)n1 [Example 79] | 8.1% | –
Cc1ccc(NS(=O)(=O)c2ccc(-c3ccccc3)cc2)nc1 [Example 66] | 33.8% | –
Cc1cccc(NS(=O)(=O)c2ccc(-c3ccc(O)cc3)cc2C)n1 [Example 199] | – | 55%
N#Cc1ccc(-c2ccc(S(=O)(=O)Nc3ccccn3)cc2)cc1 [Example 82] | 53.4% | –
COc1cccc(NS(=O)(=O)c2ccc(C(F)(F)F)cc2)n1 [Example 62] | 1.3% | –
COC(=O)c1cccc(NS(=O)(=O)c2ccc(-c3ccc(C#N)cc3)cc2)n1 [Example 7] | 7.7% | –

Compound | inhibition at 0.1 µM (0.1 uM) | inhibition at 0.1 µM (compound at 0.1 uM)
Cc1cccc(NS(=O)(=O)c2ccc(-c3ccccc3F)c(C)c2)n1 [Example 230] | – | 23%
COc1ccc(-c2ccc(S(=O)(=O)Nc3cccc(C)n3)cc2C)cc1F [Example 231] | – | 63%
Cc1cccc(NS(=O)(=O)c2ccc(F)cc2F)n1 [Example 55] | 7.4% | –
Cc1cccc(NS(=O)(=O)c2ccc(-c3ccccc3C(F)(F)F)cc2)n1 [Example 122] | 85.7% | –
Cc1cccc(NS(=O)(=O)c2ccc(-c3cnco3)cc2)n1 [Example 264, N-(6-Methyl-pyridin-2-yl)-4-oxazol-5-yl-benzenesulfonamide] | – | 39.7%
O=S(=O)(Nc1ccc2cc[nH]c2c1)c1ccc(-c2ccc(F)cc2)cc1 [Example 57] | 4.5% | –
COc1ccc(F)cc1-c1ccc(S(=O)(=O)Nc2cccc(C)n2)cc1 [Example 147] | 29.5% | –
COc1cccc(NS(=O)(=O)c2ccc(-c3ccc(C#N)cc3)cc2)n1 [Example 78] | 8.2% | –
Cc1cccc(NS(=O)(=O)c2ccc(-c3ccc(CO)cc3)cc2)n1 [Example 146] | 46.5% | –
CSc1ccccc1-c1ccc(S(=O)(=O)Nc2cccc(C)n2)cc1 [Example 139] | 37.9% | –
Cc1cccc(NS(=O)(=O)c2ccc(N3CCCCC3)nc2)n1 [Example 269, N-(6-methylpyridin-2-yl)-6-piperidin-1-ylpyridine-3-sulfonamide] | – | 2.4%
CCN(CC)C(=O)Cc1cccc(NS(=O)(=O)c2ccc(C(C)C)cc2)n1 [Example 25] | 42.8% | –
Cc1cccc(NS(=O)(=O)c2ccc(C(C)(C)C)cc2)n1 [Example 52] | 32% | –
Cc1cccc(NS(=O)(=O)c2ccc(-c3cc(F)c(F)c(F)c3)cc2)n1 [Example 152] | 72.7% | –
COc1ccc(C)nc1NS(=O)(=O)c1ccc(-c2ccc(C)cc2)cc1 [Example 278] | – | 42.8%
Cc1cccc(NS(=O)(=O)c2ccc(-c3ccc4c(c3)OCCO4)c(C)c2)n1 [Example 245] | – | 62%
C=Cc1ccc(-c2ccc(S(=O)(=O)Nc3cccc(C)n3)cc2)cc1 [Example 127] | 100% | –
Cc1cccc(NS(=O)(=O)c2ccc(-c3cc(Cl)ccc3Cl)cc2)n1 [Example 134] | 83.5% | –
Cc1cccc(NS(=O)(=O)c2ccc(N3CCOCC3)nc2)n1 [Example 83] | 11.1% | –
Cc1ccc(C)c(-c2ccc(S(=O)(=O)Nc3cccc(C)n3)cc2C)c1 [Example 240] | – | 89%

Compound | inhibition at 0.1 µM (0.1 uM) | inhibition at 0.1 µM (compound at 0.1 uM)
Cc1cc(C)nc(NS(=O)(=O)c2sc(-c3ccccc3)nc2C)c1 [Example 97] | 31.7% | –
Cc1c(S(=O)(=O)Nc2cccc(CN(C)C)n2)sc2ccc(Cl)cc12 [Example 84] | 26.4% | –
Cc1cccc(NS(=O)(=O)c2ccc3oc4ccccc4c3c2)n1 [Example 63] | 32.7% | –
Cc1nnc2n1CCN(S(=O)(=O)Nc1ccc3ccccc3n1)CC2 [Example 312] | – | 6.9%
Cc1cccc(NS(=O)(=O)c2ccc(-c3cn(C)cn3)cc2)n1 [Example 260] | – | 14.8%
CSc1ccc(-c2ccc(S(=O)(=O)Nc3cccc(C)n3)cc2)cc1 [Example 129] | 86.3% | –
Cc1cc(C)nc(NS(=O)(=O)c2ccc(C(F)(F)F)cc2)c1 [Example 77] | 35.4% | –
Cc1ccnc(NS(=O)(=O)c2ccc(-c3ccccc3)cc2)n1 [Example 59] | 3.8% | –
CCSc1ccc(-c2ccc(S(=O)(=O)Nc3cccc(C)n3)cc2)cc1 [Example 141] | 83.8% | –
COc1c(C)cc(-c2ccc(S(=O)(=O)Nc3cccc(C)n3)cc2)cc1C [Example 156] | 65.6% | –
Cc1cccc(-c2ccc(S(=O)(=O)Nc3cccc(C)n3)c(C)c2)c1 [Example 189] | 88% | –
Cc1cccc(NS(=O)(=O)c2ccc(-c3ccc(C#N)cn3)cc2)n1 [Example 275] | – | 85.7%
Cc1c(Cl)cccc1S(=O)(=O)Nc1cccc(CC(=O)N2CCCC(C)(C)C2)n1 [Example 28] | 45.6% | –
CCN(CC)C(=O)Cc1cc(C)cc(NS(=O)(=O)c2cccc(Cl)c2C)n1 [Example 15] | 23.6% | –
Cc1cccc(NS(=O)(=O)c2ccc(-c3ccc(OCCN)cc3)cc2)n1 [Example 263, 4′-(2-Amino-ethoxy)-biphenyl-4-sulfonic acid (6-methyl-pyridin-2-yl)-amide] | – | 11.8%
CCN(CC)C(=O)Cc1cccc(NS(=O)(=O)c2ccc(C)cc2)n1 [Example 23] | 4.9% | –
Cc1cccc(NS(=O)(=O)Cc2ccc(Cl)c(Cl)c2)n1 [Example 74] | 28.9% | –
Cc1cccc(NS(=O)(=O)c2ccc(Oc3ccccc3)cc2)n1 [Example 47] | 21% | –
